Read-outs that look alike come from different tables or passages of the source.

Experimental findings from patent US20050267073A1, “Triheterocyclic compounds, compositions, and methods for treating cancer or viral diseases” (priority 2004, published 2005) are described below.

In test [1] the test system is H1299 human non-small cell lung cancer cells. The test can be described thus: Cell viability by cellular ATP levels (ViaLight), H1299 cells. The test is classed as cell-based. To be noted: Homo sapiens. The source says:
(§1) […]. […] […]. The total dimethyl sulfoxide on the cells was 1%. […] […].
(§2) As depicted in Table 4, these compounds were efficient in decreasing cellular ATP levels in HI 299 and C33A cancer cell lines. Nevertheless, these compounds are believed to have utility in the in vivo methods of the invention, i.e., treatment and prevention of cancer and viral infections, respectively. It should be noted that, although this cell-based assay is believed to be indicative of anti-oncogenic activity in vivo, it is not the only useful assay for evaluating the anti-oncogenic activity of Triheterocyclic Compounds of the invention. In addition, the anti-viral and other biological activity of compounds of the invention can be determined and evaluated in other assay systems known to the skilled artisan.

Test [2] concerns C33A cervical carcinoma cells. The test can be described thus: cells. The class given is cell-based. To be noted: Homo sapiens, C-33-A, read-out: IC50 (μM) C33A, Effect on Cancer Cells Viability.
Source text: as §1, §2

The mark [3] stands for this setting: NCI-H1299, H1299, cellular ATP levels as described in Example 2, read-out: IC50 (μM) H1299, Effect on Cancer Cells Viability.
Setting [4] is: C33A, cellular ATP levels as described in Example 2.

Regarding `COC1=CC(c2cc3ccccc3n2Cc2ccc(O)cc2)=N/C1=C\c1[nH]c(C)cc1C` [Compound 58, 4-{2-(5-(3,5-Dimethyl-1H-pyrrol-2-ylmethylene)-4-methoxy-5H-pyrrol-2-yl]-indol-1-ylmethyl}-phenol], the IC50 in test [1] (setting [3]) stood at 1.97 µM; in test [2] (setting [4]) it was 1.32 µM.

With `COC1=CC(c2cc3ccccc3n2C(=O)c2ccc(Br)cc2)=N/C1=C/c1[nH]c(C)cc1C` [Compound 55, (4-Bromo-phenyl)-{2-[5-(3,5-dimethyl-1H-pyrrol-2-ylmethylene)-4-methoxy-5H-pyrrol-2-yl]-indol-1-yl}-methanone], the IC50 in test [1] (setting [3]) and in test [2] (setting [4]) was 0.173 µM in each case.

On to `Cc1cc(C)c(/C=C2\N=C(c3cc4c(O)cccc4[nH]3)C=C2OC(C)C)[nH]1` [Compound 57, 2-[5-(3,5-Dimethyl-1H-pyrrol-2-ylmethylene)-4-isopropoxy-5H-pyrrol-2-yl]-1H-indol-4-ol], for which the IC50 in test [1] (setting [3]) is 5.9 µM; in test [2] (setting [4]), 3.75 µM.

Consider `COC1=CC(c2cc3ccccc3n2C(=O)Nc2ccc(N(C)C)cc2)=N/C1=C\c1[nH]c(C)cc1C` [Compound 52, 2-[5-(3,5-Dimethyl-1H-pyrrol-2-ylmethylene)-4-methoxy-5H-pyrrol-2-yl]-indole-1-carboxylic acid (4-dimethylamino-phenyl)-amide], for which the half-maximal inhibitory concentration (IC50) was determined as 1.04 µM in test [1] (setting [3]) and 1.11 µM in test [2] (setting [4]).

Turning to `COC1=CC(c2[nH]c3ccccc3c2CO)=N/C1=C\c1[nH]c(C)cc1C` [Compound 37], the IC50 in test [1] (setting [3]) was 1.35 µM; in test [2] (setting [4]) it was 1.29 µM.

For the compound `CNCc1c(C2=N/C(=C\c3[nH]c(C)cc3C)C(OC)=C2CO)[nH]c2ccccc12` [Compound 10, [5-(3,5-Dimethyl-1H-pyrrol-2-ylmethylene)-4-methoxy-2-(3-methylaminomethyl-1H-indol-2-yl)-5H-pyrrol-3-yl]-methanol], the figures for the concentration for half-maximal inhibition (IC50) in test [1] (setting [3]) and in test [2] (setting [4]) were 0.493 µM and 0.25 µM, respectively.

In the case of `COC1=CC(c2cc3ccccc3n2C(=O)c2ccccc2)=N/C1=C/c1[nH]c(C)cc1C` [Compound 43, {2-[5-(3,5-Dimethyl-1H-pyrrol-2-ylmethylene)-4-methoxy-5H-pyrrol-2-yl]-indol-1-yl}-phenyl-methanone], the IC50 in test [1] (setting [3]) amounted to 0.298 µM; in test [2] (setting [4]) it was 0.196 µM.

As to `COC1=CC(c2cc3cc(OC)ccc3[nH]2)=N/C1=C\c1[nH]c(C)cc1C` [Compound 15, 2-[5-(3,5-Dimethyl-1H-pyrrol-2-ylmethylene)-4-methoxy-5H-pyrrol-2-yl]-5-methoxy-1H-indole], the values for the IC50 in test [1] (setting [3]) and in test [2] (setting [4]) were 0.935 µM and 1.44 µM, respectively.

Regarding `COC1=CC(c2cc3ccccc3[nH]2)=N/C1=C\c1[nH]c(C)c(I)c1C` [Compound 2, 2-[5-(4-Iodo-3,5-dimethyl-1H-pyrrol-2-ylmethylene)-4-methoxy-5H-pyrrol-2-yl]-1H-indole], the IC50 in test [1] (setting [3]) is 0.53 µM; in test [2] (setting [4]), 0.65 µM.

As to `COC1=CC(c2[nH]c3ccccc3c2C(=O)c2ccc(-c3ccccn3)s2)=N/C1=C\c1[nH]c(C)cc1C` [Compound 22, {2-[5-(3,5-Dimethyl-1H-pyrrol-2-ylmethylene)-4-methoxy-5H-pyrrol-2-yl]-1H-indol-3-yl}-(5-pyridin-2-yl-thiophen-2-yl)-methanone], the half-maximal inhibitory concentration (IC50) came out at 7.19 µM in test [1] (setting [3]) and 6.46 µM in test [2] (setting [4]).

Consider `COC1=CC(c2cc3ccccc3n2COC(=O)C(C)(C)C)=N/C1=C\c1[nH]c(C)cc1C` [Compound 64, 2,2-Dimethyl-propionic acid 2-[5-(3,5-dimethyl-1H-pyrrol-2-ylmethylene)-4-methoxy-5H-pyrrol-2-yl]-indol-1-ylmethyl ester], for which the values for the IC50 in test [1] (setting [3]) and in test [2] (setting [4]) were 13.3 µM and 14.2 µM, respectively.

As for `Cc1cc(C)c(/C=C2\N=C(c3cc4ccc(F)cc4[nH]3)C=C2OC(C)C)[nH]1` [Compound 45, 2-[5-(3,5-Dimethyl-1H-pyrrol-2-ylmethylene)-4-isopropoxy-5H-pyrrol-2-yl]-6-fluoro-1H-indole], the 50% inhibitory concentration (IC50) stood at 0.887 µM in test [1] (setting [3]) and 0.716 µM in test [2] (setting [4]).

As to `COC1=CC(c2cc3ccccc3n2C(=O)C(C)C)=N/C1=C\c1[nH]c(C)cc1C` [Compound 35, 1-{2-[5-(3,5-Dimethyl-1H-pyrrol-2-ylmethylene)-4-methoxy-5H-pyrrol-2-yI]-indol-1-yl}-2-methyl-propan-1-one], the figures for the IC50 in test [1] (setting [3]) and in test [2] (setting [4]) were 0.197 µM and 0.167 µM, respectively.

As for `CCOC(=O)C(=O)c1c(C)[nH]c(/C=C2\N=C(c3[nH]c4ccccc4c3C(=O)C(=O)OCC)C=C2OC)c1C` [Compound 20, {2-[5-(4-Ethoxyoxalyl-3,5-dimethyl-1H-pyrrol-2-ylmethylene)-4-methoxy-5H-pyrrol-2-yl]-1H-indol-3-yl}-oxo-acetic acid ethyl ester], the IC50 in test [1] (setting [3]) was found to be 7.98 µM; in test [2] (setting [4]) it was 7.23 µM.

Regarding `COC(=O)CCc1c(C)[nH]c(/C=C2\N=C(c3cc4ccccc4[nH]3)C=C2OC)c1C` [Compound 63, 3-{5-[5-(1H-Indol-2-yl)-3-methoxy-pyrrol-2-ylidenemethyl]-2,4-dimethyl-1H-pyrrol-3-yI}-propionic acid methyl ester], the concentration for half-maximal inhibition (IC50) in test [1] (NCI-H1299, read-out: IC50 (μM) H1299, Effect on Cancer Cells Viability) came out at 0.753 µM; in test [2], 0.548 µM.

`Cc1cc(C)c(/C=C2\N=C(c3cc4c(OC(=O)OC(C)(C)C)cccc4[nH]3)C=C2OC(C)C)[nH]1` [Compound 38, Carbonic acid tert-butyl ester 2-[5-(3,5-dimethyl-1H-pyrrol-2-ylmethylene)-4-isopropoxy-5H-pyrrol-2-yl]-1H-indol-4-yl ester]: the IC50 in test [1] (setting [3]) worked out at 0.342 µM; in test [2] (setting [4]), 0.226 µM.

Take `COC1=CC(c2cc3ccccc3n2C(=O)OCC(O)CO)=N/C1=C\c1[nH]c(C)cc1C` (centres unmarked) [Compound 44, 2-[5-(3,5-Dimethyl-1H-pyrrol-2-ylmethylene)-4-methoxy-5H-pyrrol-2-yl]-indole-1-carboxylic acid 2,3-dihydroxy-propyl ester]: the IC50 in test [1] (setting [3]) was 1.28 µM; in test [2] (setting [4]) it was 1.26 µM.

`COc1cccc(COC2=CC(c3cc4ccccc4[nH]3)=N/C2=C\c2[nH]c(C)cc2C)c1` [Compound 51, 2-[5-(3,5-Dimethyl-1H-pyrrol-2-ylmethylene)-4-(3-methoxy-benzyloxy)-5H-pyrrol-2-yl]-1H-indole]: the 50% inhibitory concentration (IC50) is 0.202 µM in test [1] (setting [3]) and 0.165 µM in test [2] (setting [4]).

On to `COC1=CC(c2cc3cc(Br)ccc3[nH]2)=N/C1=C\c1[nH]c(C)cc1C` [Compound 7, 5-Bromo-2-[5-(3,5-dimethyl-1H-pyrrol-2-ylmethylene)-4-methoxy-5H-pyrrol-2-yl]-1H-indole], for which the IC50 in test [1] (setting [3]) turned out to be 1.73 µM; in test [2] (setting [4]), 2.23 µM.

`COC1=CC(c2cc3ccccc3[nH]2)=N/C1=C(\C)c1[nH]c(C)cc1C` [Compound 47, 2-{5-[1-(3,5-Dimethyl-1H-pyrrol-2-yl)-ethylidene]-4-methoxy-5H-pyrrol-2-yl)-1H-indole]: the IC50 was found to be 9.65 µM in test [1] (setting [3]) and 8.28 µM in test [2] (setting [4]).

For `COC1=CC(c2[nH]c3ccccc3c2C(=O)c2ccoc2)=N/C1=C\c1[nH]c(C)cc1C` [Compound 27, {2-[5-(3,5-Dimethyl-1H-pyrrol-2-ylmethylene)-4-methoxy-5H-pyrrol-2-yl]-1H-indol-3-yl}-furan-3-yl-methanone], the IC50 in test [1] (setting [3]) was 15.3 µM; in test [2] (setting [4]) it was 10 µM.

Consider `C=CCNCc1c(C2=N/C(=C\c3[nH]c(C)cc3C)C(OC)=C2CO)[nH]c2ccccc12` [Compound 13, [2-(3-Allylaminomethyl-1H-indol-2-yl)-5-(3,5-dimethyl-1H-pyrrol-2-ylmethylene)-4-methoxy-5H-pyrrol-3-yl]-methanol], for which the IC50 amounted to 0.717 µM in test [1] (setting [3]) and 0.44 µM in test [2] (setting [4]).

Regarding `COC1=CC(c2[nH]c3ccccc3c2CN2CCN(c3ccccc3)CC2)=N/C1=C\c1[nH]c(C)cc1C` [Compound 8, 2-[5-(3,5-Dimethyl-1H-pyrrol-2-ylmethylene)-4-methoxy-5H-pyrrol-2-yl]-3-(4-phenyl-piperazin-1-ylmethyl)-1H-indole], the results for the IC50 in test [1] (setting [3]) and in test [2] (setting [4]) were 1.88 µM and 1.76 µM, respectively.

On to `COC1=CC(c2cc3c(O)cccc3[nH]2)=N/C1=C\c1[nH]c(C)cc1C` [Compound 59, 2-[5-(3,5-Dimethyl-1H-pyrrol-2-ylmethylene)-4-methoxy-5H-pyrrol-2-yl]-1H-indol-4-ol], for which the concentration for half-maximal inhibition (IC50) came to 5.84 µM in test [1] (setting [3]) and 5.6 µM in test [2] (setting [4]).

For the compound `COC1=CC(c2[nH]c3ccccc3c2I)=N/C1=C\c1[nH]c(C)c(I)c1C` [Compound 17, 3-Iodo-2-[5-(4-iodo-3,5-dimethyl-1H-pyrrol-2-ylmethylene)-4-methoxy-5H-pyrrol-2-yl]-1H-indole], the figures for the IC50 in test [1] (setting [3]) and in test [2] (setting [4]) were 5.37 µM and 5.69 µM, respectively.

Consider `COC1=CC(c2cc3ccccc3n2C(=O)OC(C)(C)C)=N/C1=C\c1[nH]c(C)cc1C` [Compound 49, 2-[5-(3,5-Dimethyl-1H-pyrrol-2-ylmethylene)-4-methoxy-5H-pyrrol-2-yl]-indole-1-carboxylic acid tert-butyl ester], for which the IC50 in test [1] (setting [3]) came to 3 µM; in test [2] (setting [4]) it was 2 µM.

For `Cc1cc(C)c(/C=C2\N=C(c3cc4ccccc4[nH]3)C=C2O)[nH]1` [Compound 50, 2-(3,5-Dimethyl-1H-pyrrol-2-ylmethylene)-5-(1H-indol-2-yl)-2H-pyrrol-3-ol], the results for the half-maximal inhibitory concentration (IC50) in test [1] (setting [3]) and in test [2] (setting [4]) were 1.21 µM and 0.509 µM, respectively.

As to `COC1=CC(c2cc3ccccc3n2CCO)=N/C1=C\c1[nH]c(C)cc1C` [Compound 40, 2-{2-[5-(3,5-Dimethyl-1H-pyrrol-2-ylmethylene)-4-methoxy-5H-pyrrol-2-yl]-indol-1-yl}-ethanol], the 50% inhibitory concentration (IC50) in test [1] (setting [3]) came out at 8.46 µM; in test [2] (setting [4]) it was 7.17 µM.

The term IC50 denotes the concentration needed to halve the response being measured.
